Assay results as given in ChEMBL document CHEMBL1629583, “Establishment of in vitro susceptibility testing methodologies and comparative activities of piperacillin in combination with the penem {beta}-lactamase inhibitor BLI-489” (2009).

How the values were obtained:
Format in all cases: functional
[1] = tested on: Enterococcus casseliflavus; experiment: Antimicrobial activity against Enterococcus casseliflavus clinical isolate after 18 to 22 hrs by broth microdilution method
Morganella morganii = experiment: Antimicrobial activity against Morganella morganii clinical isolate after 18 to 22 hrs by broth microdilution method
Serratia marcescens [2] = experiment: Antimicrobial activity against Serratia marcescens clinical isolate after 18 to 22 hrs by broth microdilution method
Acinetobacter junii = experiment: Antimicrobial activity against Acinetobacter junii clinical isolate after 18 to 22 hrs by broth microdilution method
Proteus mirabilis = experiment: Antimicrobial activity against Proteus mirabilis clinical isolate after 18 to 22 hrs by broth microdilution method
Enterococcus hirae = experiment: Antimicrobial activity against Enterococcus hirae clinical isolate after 18 to 22 hrs by broth microdilution method
Enterococcus faecalis [3] = experiment: Antimicrobial activity against vancomycin-resistant Enterococcus faecalis clinical isolate after 18 to 22 hrs by broth microdilution method
Escherichia coli [4] = experiment: Antimicrobial activity against AmpC beta-lactamase-producing Escherichia coli clinical isolate after 18 to 22 hrs by broth microdilution method
Klebsiella oxytoca = experiment: Antimicrobial activity against Klebsiella oxytoca clinical isolate after 18 to 22 hrs by broth microdilution method
Klebsiella pneumoniae [5] = experiment: Antimicrobial activity against Klebsiella pneumoniae clinical isolate after 18 to 22 hrs by broth microdilution method
Streptococcus pyogenes = experiment: Antimicrobial activity against Streptococcus pyogenes clinical isolate after 18 to 22 hrs by broth microdilution method
Citrobacter freundii [6] = experiment: Antimicrobial activity against AmpC beta-lactamase-producing Citrobacter freundii clinical isolate after 18 to 22 hrs by broth microdilution method
Acinetobacter baumannii = experiment: Antimicrobial activity against Acinetobacter baumannii clinical isolate after 18 to 22 hrs by broth microdilution method
Proteus vulgaris = experiment: Antimicrobial activity against Proteus vulgaris clinical isolate after 18 to 22 hrs by broth microdilution method
Enterococcus faecalis [7] = experiment: Antimicrobial activity against Enterococcus faecalis clinical isolate after 18 to 22 hrs by broth microdilution method
Streptococcus pneumoniae [8] = experiment: Antimicrobial activity against penicillin-susceptible Streptococcus pneumoniae clinical isolate after 18 to 22 hrs by broth microdilution method
Enterococcus faecium [9] = experiment: Antimicrobial activity against Enterococcus faecium clinical isolate after 18 to 22 hrs by broth microdilution method
[10] = tested on: Staphylococcus epidermidis; experiment: Antimicrobial activity against methicillin-susceptible Staphylococcus epidermidis clinical isolate after 18 to 22 hrs by broth microdilution method
Moraxella catarrhalis = experiment: Antimicrobial activity against Moraxella catarrhalis clinical isolate after 18 to 22 hrs by broth microdilution method
Klebsiella pneumoniae [11] = experiment: Antimicrobial activity against AmpC- producing Klebsiella pneumoniae clinical isolate after 18 to 22 hrs by broth microdilution method
Escherichia coli [12] = experiment: Antimicrobial activity against Escherichia coli clinical isolate after 18 to 22 hrs by broth microdilution method
Enterococcus avium = experiment: Antimicrobial activity against Enterococcus avium clinical isolate after 18 to 22 hrs by broth microdilution method
Providencia rettgeri = experiment: Antimicrobial activity against Providencia rettgeri clinical isolate after 18 to 22 hrs by broth microdilution method
Pseudomonas aeruginosa = experiment: Antimicrobial activity against Pseudomonas aeruginosa clinical isolate after 18 to 22 hrs by broth microdilution method
[13] = tested on: Acinetobacter calcoaceticus; experiment: Antimicrobial activity against Acinetobacter calcoaceticus clinical isolate after 18 to 22 hrs by broth microdilution method
Enterococcus gallinarum = experiment: Antimicrobial activity against Enterococcus gallinarum clinical isolate after 18 to 22 hrs by broth microdilution method
[14] = tested on: Haemophilus parainfluenzae; experiment: Antimicrobial activity against Haemophilus parainfluenzae clinical isolate after 18 to 22 hrs by broth microdilution method
Staphylococcus aureus [15] = experiment: Antimicrobial activity against methicillin-resistant Staphylococcus aureus clinical isolate after 18 to 22 hrs by broth microdilution method
Klebsiella aerogenes [16] = experiment: Antimicrobial activity against AmpC beta-lactamase-producing Enterobacter aerogenes clinical isolate after 18 to 22 hrs by broth microdilution method
[17] = tested on: Staphylococcus epidermidis; experiment: Antimicrobial activity against methicillin-resistant Staphylococcus epidermidis clinical isolate after 18 to 22 hrs by broth microdilution method
Enterococcus faecium [18] = experiment: Antimicrobial activity against vancomycin-resistant Enterococcus faecium clinical isolate after 18 to 22 hrs by broth microdilution method
Staphylococcus aureus [19] = experiment: Antimicrobial activity against methicillin-susceptible Staphylococcus aureus clinical isolate after 18 to 22 hrs by broth microdilution method
Haemophilus influenzae = experiment: Antimicrobial activity against beta-lactamase-negative Haemophilus influenzae clinical isolate after 18 to 22 hrs by broth microdilution method
Klebsiella aerogenes [20] = experiment: Antimicrobial activity against Enterobacter aerogenes clinical isolate after 18 to 22 hrs by broth microdilution method
[21] = tested on: Staphylococcus haemolyticus; experiment: Antimicrobial activity against Staphylococcus haemolyticus clinical isolate after 18 to 22 hrs by broth microdilution method
Serratia marcescens [22] = experiment: Antimicrobial activity against AmpC beta-lactamase-producing Serratia marcescens clinical isolate after 18 to 22 hrs by broth microdilution method
Streptococcus pneumoniae [23] = experiment: Antimicrobial activity against penicillin-resistant Streptococcus pneumoniae clinical isolate after 18 to 22 hrs by broth microdilution method
Citrobacter freundii [24] = experiment: Antimicrobial activity against Citrobacter freundii clinical isolate after 18 to 22 hrs by broth microdilution method
Enterobacter cloacae = experiment: Antimicrobial activity against AmpC beta-lactamase-producing Enterobacter cloacae clinical isolate after 18 to 22 hrs by broth microdilution method
Enterococcus durans = experiment: Antimicrobial activity against Enterococcus durans clinical isolate after 18 to 22 hrs by broth microdilution method
[25] = tested on: Acinetobacter haemolyticus; experiment: Antimicrobial activity against Acinetobacter haemolyticus clinical isolate after 18 to 22 hrs by broth microdilution method

C[C@H]1COc2c(N3CCN(C)CC3)c(F)cc3c(=O)c(C(=O)O)cn1c23.C[C@H]1COc2c(N3CCN(C)CC3)c(F)cc3c(=O)c(C(=O)O)cn1c23.O [LEVOFLOXACIN]
8 µg/mL: MIC90 [1] | MIC90 (Enterococcus hirae) | MIC90 (Citrobacter freundii [6]) | MIC50 (Acinetobacter baumannii) | MIC90 (Escherichia coli [12]) | MIC50 [13] | MIC90 (Enterococcus gallinarum) | MIC90 (Klebsiella aerogenes [16]) | MIC50 [21] | MIC90 (Serratia marcescens [22]) | MIC90 (Enterobacter cloacae) | MIC90 (Enterococcus durans)
0.25 µg/mL: MIC90 (Klebsiella oxytoca) | MIC90 [10] | MIC50 (Staphylococcus aureus [19])
0.12 µg/mL: MIC50 (Serratia marcescens [2]) | MIC50 (Acinetobacter junii) | MIC50 (Citrobacter freundii [6]) | MIC90 (Proteus vulgaris) | MIC50 [10] | MIC50 (Klebsiella aerogenes [16]) | MIC50 (Serratia marcescens [22]) | MIC50 (Citrobacter freundii [24]) | MIC50 (Enterobacter cloacae) | MIC50 [25]
16 µg/mL: MIC90 (Proteus mirabilis) | MIC50 (Escherichia coli [4]) | MIC90 (Acinetobacter baumannii) | MIC90 (Providencia rettgeri) | MIC90 [13] | MIC90 [21]
0.06 µg/mL: MIC50 (Klebsiella pneumoniae [5]) | MIC90 (Moraxella catarrhalis) | MIC90 [14] | MIC50 (Klebsiella aerogenes [20])
0.5 µg/mL: MIC50 (Proteus mirabilis) | MIC90 (Klebsiella pneumoniae [5]) | MIC50 (Streptococcus pyogenes) | MIC90 (Streptococcus pyogenes) | MIC90 (Staphylococcus aureus [19]) | MIC90 (Klebsiella aerogenes [20])
1 µg/mL: MIC50 [1] | MIC50 (Enterococcus hirae) | MIC50 (Enterococcus faecalis [7]) | MIC50 (Streptococcus pneumoniae [8]) | MIC90 (Streptococcus pneumoniae [8]) | MIC50 (Providencia rettgeri) | MIC50 (Pseudomonas aeruginosa) | MIC50 (Enterococcus gallinarum) | MIC50 (Streptococcus pneumoniae [23]) | MIC90 (Streptococcus pneumoniae [23]) | MIC50 (Enterococcus durans)
≤ 0.015 µg/mL: MIC [14] | MIC50 [14] | MIC (Haemophilus influenzae) | MIC50 (Haemophilus influenzae) | MIC90 (Haemophilus influenzae)
4 µg/mL: MIC90 (Serratia marcescens [2]) | MIC50 (Enterococcus faecium [9]) | MIC50 (Staphylococcus aureus [15])
0.03 µg/mL: MIC50 (Morganella morganii) | MIC50 (Klebsiella oxytoca) | MIC (Proteus vulgaris) | MIC50 (Proteus vulgaris) | MIC50 (Moraxella catarrhalis) | MIC50 (Escherichia coli [12])
2 µg/mL: MIC90 (Acinetobacter junii) | MIC50 (Enterococcus faecalis [3]) | MIC50 (Klebsiella pneumoniae [11]) | MIC50 (Enterococcus avium) | MIC90 (Enterococcus avium) | MIC50 [17] | MIC90 (Citrobacter freundii [24]) | MIC90 [25]
> 16 µg/mL: MIC90 (Morganella morganii) | MIC90 (Escherichia coli [4]) | MIC90 (Enterococcus faecalis [7]) | MIC90 (Enterococcus faecium [9]) | MIC90 (Klebsiella pneumoniae [11]) | MIC90 (Pseudomonas aeruginosa) | MIC90 (Staphylococcus aureus [15]) | MIC90 [17] | MIC (Enterococcus faecium [18]) | MIC50 (Enterococcus faecium [18])

CCN1CCN(C(=O)N[C@@H](C(=O)N[C@@H]2C(=O)N3[C@@H]2SC(C)(C)[C@@H]3C(=O)O)c2ccccc2)C(=O)C1=O [PIPERACILLIN]
0.06 µg/mL: MIC90 (Streptococcus pyogenes) | MIC50 [14]
2 µg/mL: MIC50 (Enterococcus faecalis [3]) | MIC (Enterococcus faecalis [7]) | MIC50 (Enterococcus faecalis [7]) | MIC50 [10] | MIC50 (Escherichia coli [12]) | MIC50 (Providencia rettgeri) | MIC50 (Streptococcus pneumoniae [23])
8 µg/mL: MIC50 (Morganella morganii) | MIC50 (Klebsiella oxytoca) | MIC50 (Klebsiella pneumoniae [5]) | MIC90 [10] | MIC90 (Moraxella catarrhalis) | MIC50 [17]
32 µg/mL: MIC50 (Enterococcus faecium [9])
4 µg/mL: MIC50 [1] | MIC50 (Serratia marcescens [2]) | MIC50 (Acinetobacter junii) | MIC50 (Enterococcus hirae) | MIC90 (Enterococcus faecalis [7]) | MIC50 (Enterococcus gallinarum) | MIC50 (Klebsiella aerogenes [20]) | MIC90 (Streptococcus pneumoniae [23]) | MIC50 (Citrobacter freundii [24]) | MIC50 (Enterococcus durans) | MIC50 [25]
16 µg/mL: MIC90 [1] | MIC90 (Enterococcus hirae) | MIC50 (Enterococcus avium) | MIC50 (Pseudomonas aeruginosa) | MIC90 (Enterococcus gallinarum) | MIC90 (Enterococcus durans)
0.5 µg/mL: MIC90 [14]
128 µg/mL: MIC90 (Acinetobacter junii) | MIC90 (Klebsiella pneumoniae [5]) | MIC90 (Klebsiella aerogenes [20]) | MIC90 [25]
0.25 µg/mL: MIC50 (Moraxella catarrhalis)
> 128 µg/mL: MIC90 (Morganella morganii) | MIC90 (Serratia marcescens [2]) | MIC50 (Proteus mirabilis) | MIC90 (Proteus mirabilis) | MIC90 (Enterococcus faecalis [3]) | MIC50 (Escherichia coli [4]) | MIC90 (Escherichia coli [4]) | MIC50 (Citrobacter freundii [6]) | MIC90 (Citrobacter freundii [6]) | MIC50 (Acinetobacter baumannii) | MIC90 (Acinetobacter baumannii) | MIC90 (Proteus vulgaris) | MIC90 (Enterococcus faecium [9]) | MIC50 (Klebsiella pneumoniae [11]) | MIC90 (Klebsiella pneumoniae [11]) | MIC90 (Escherichia coli [12]) | MIC90 (Pseudomonas aeruginosa) | MIC50 [13] | MIC90 [13] | MIC50 (Staphylococcus aureus [15]) | MIC50 (Klebsiella aerogenes [16]) | MIC90 (Klebsiella aerogenes [16]) | MIC (Enterococcus faecium [18]) | MIC50 (Enterococcus faecium [18]) | MIC90 (Staphylococcus aureus [19]) | MIC50 [21] | MIC90 [21] | MIC50 (Serratia marcescens [22]) | MIC90 (Serratia marcescens [22]) | MIC90 (Citrobacter freundii [24]) | MIC50 (Enterobacter cloacae) | MIC90 (Enterobacter cloacae)
0.015 µg/mL: MIC50 (Streptococcus pneumoniae [8]) | MIC50 (Haemophilus influenzae)
64 µg/mL: MIC90 (Klebsiella oxytoca) | MIC50 (Proteus vulgaris) | MIC90 (Enterococcus avium) | MIC90 [17] | MIC50 (Staphylococcus aureus [19])
0.03 µg/mL: MIC50 (Streptococcus pyogenes) | MIC90 (Streptococcus pneumoniae [8]) | MIC90 (Haemophilus influenzae)
